Results taken from US8633166B2, “Methicillin-resistant Staphylococcus aureus active metabolites” (priority 2009, dated 2014).

Columns and labels:
streptococci = assay: In vitro MIC, streptococci; assay type: cell-based, Streptococcus; settings: highest concentrations considered for MIC readings
Protocol: (§1) All test articles were dissolved in DMSO. Stock solutions were prepared at 40-fold the highest concentration in the test plate. The final concentration of DMSO in the test system was 2.5%.
(§2) The medium employed for the MIC assay was Mueller Hinton II Broth (MHB II-Becton Dickinson, #212322, Lot #9044411) for most of the organisms. MHB II was supplemented with 2% lysed horse blood (Cleveland Scientific Lot #22299-1) to accommodate the growth of Streptococcus pneumoniae, Streptococcus pyogenes and Streptococcus agalactiae. The media were prepared at 102.5% the normal weight to offset the dilution created by the addition of 5 μL drug solution to each well of the microdilution panels. […]
(§3) Plates were stacked 3 high, covered with a lid on the top plate, placed in plastic bags, and incubated at 35° C. for approximately 18 hours for most of the isolates. The Streptococcus plates were read after 20 hours of incubation. […] The MIC was read and recorded as the lowest concentration of drug that inhibited visible growth of the organism.

enterococci = assay: In vitro MIC, for enterococci; assay type: cell-based; settings: E. faecalis and E. faecium, vancomycin-susceptible and vancomycin-resistant strains
Protocol: as §1, §2, §3

[1] = tested on: methicillin resistant Staphylococcus aureus (MRSA); assay: In vitro antimicrobial evaluation, modified CLSI (formerly NCCLS) method; assay type: cell-based; settings: IC50 from percent growth versus test concentration; values only in FIG. 1
Protocol: The in vitro antimicrobial activity for the isolated glycosides is represented in FIG. 1. A modified version of CLSI (formerly NCCLS) method was used for the in vitro evaluation of test samples. Duplicate samples were transferred to 96-well microplates after diluting with 0.9% saline. The microbial cell suspensions were to give the desired target inocula after addition to the samples. Media and solvent controls were included in each assay. The IC50 was calculated by plotting percent growth versus test concentration.

[2] = tested on: Staphylococcus epidermidis; assay: In vitro MIC, broth microdilution (CLSI); assay type: cell-based
Protocol: as §1
(§4) The medium employed for the MIC assay was Mueller Hinton II Broth (MHB II-Becton Dickinson, #212322, Lot #9044411) for most of the organisms. MHB II was supplemented with 2% lysed horse blood (Cleveland Scientific Lot #22299-1) to accommodate the growth of Streptococcus pneumoniae, Streptococcus pyogenes and Streptococcus agalactiae. The media were prepared at 102.5% the normal weight to offset the dilution created by the addition of 5 μL drug solution to each well of the microdilution panels.
(§5) The MIC assay method followed the procedure described by the Clinical and Laboratory Standards Institute (see Clinical and Laboratory Standards Institute. Methods for Dilution Antimicrobial, Susceptibility Tests for Bacteria That Grow Aerobically; Approved Standard—Eighth Edition. CLSI document M07-A8 [ISBN 1-56238-689-1]. Clinical and Laboratory, Standards Institute, 940 West Valley Road, Suite 1400, Wayne, Pa. 19087-1898 USA, 2009) and employed automated liquid handlers to conduct serial dilutions and liquid transfers. Automated liquid handlers included the Multidrop 384 (Labsystems, Helsinki, Finland), Biomek 2000 and Multimek 96 (Beckman Coulter, Fullerton Calif.).
(§6) The wells of Columns 2-12 of standard 96-well microdilution plates (Falcon 3918) were filled with 150 μL of DMSO on the Multidrop 384. The drugs (300 μL) were dispensed into Column 1 of the appropriate row in these plates. These would become the mother plates from which the test plates (daughter plates) were prepared. The Biomek 2000 completed serial transfers through Column 11 in the mother plates. The wells of Column 12 contained no drug and were the organism growth control wells in the daughter plates. The daughter plates were loaded with 185 μL of the appropriate test media (described above) using the Multidrop 384. The daughter plates were prepared on the Multimek 96 instrument which transferred 5 μL of drug solution from each well of a mother plate to each corresponding well of each daughter plate in a single step. Therefore, the test agents were maintained in solution in 100% DMSO up until the point of being added to the final test medium.
(§7) Standardized inoculum of each organism was prepared per CLSI methods (See Clinical and Laboratory Standards Institute. Performance Standards for Antimicrobial Susceptibility Testing; Nineteenth Informational Supplement. CLSI document M100-S19 [ISBN 1-56238-690-5]. Clinical and Laboratory Standards Institute, 940 West Valley Road, Suite 1400, Wayne, Pa. 19087-1898 USA, 2009.). Suspensions were prepared in MHB to equal the turbidity of a 0.5 McFarland standard. The suspensions were diluted 1:9 in broth appropriate to the organism. The inoculum for each organism was dispensed into sterile reservoirs divided by width (Beckman Coulter), and the Biomek 2000 was used to inoculate the plates. Daughter plates were placed on the Biomek 2000 work surface reversed so that inoculation took place from low to high drug concentration. The Biomek 2000 delivered 10 μL of standardized inoculum into each well. This yielded a final cell concentration in the daughter plates of approximately 5×10^5 colony-forming-units/mL. Thus, the wells of the daughter plates ultimately contained 185 μL of broth, 5 μL of drug solution, and 10 μL of bacterial inoculum. The final concentration of DMSO in the assay plate was 2.5%.
as §3, with “incubation. The microplates were viewed from the bottom using a plate viewer.” for “incubation.”

Streptococcus pyogenes = assay: In vitro MIC, broth microdilution (CLSI); assay type: cell-based; settings: MHB II with 2% lysed horse blood
Protocol: as §1, §4, §5, §6, §7
as §3, with “incubation. The microplates were viewed from the bottom using a plate viewer.” for “incubation.”

Streptococcus pneumoniae = assay: In vitro MIC, broth microdilution (CLSI); assay type: cell-based; settings: MHB II with 2% lysed horse blood
Protocol: as §1, §4, §5, §6, §7
as §3, with “incubation. The microplates were viewed from the bottom using a plate viewer.” for “incubation.”

Streptococcus agalactiae = assay: In vitro MIC, broth microdilution (CLSI); assay type: cell-based; settings: MHB II with 2% lysed horse blood
Protocol: as §1, §4, §5, §6, §7
as §3, with “incubation. The microplates were viewed from the bottom using a plate viewer.” for “incubation.”

Staphylococcus aureus = assay: In vitro MIC, broth microdilution (CLSI); assay type: cell-based
Protocol: as §1, §4, §5, §6, §7
as §3, with “incubation. The microplates were viewed from the bottom using a plate viewer.” for “incubation.”

Enterococcus faecalis = assay: In vitro MIC, broth microdilution (CLSI); assay type: cell-based
Protocol: as §1, §4, §5, §6, §7
as §3, with “incubation. The microplates were viewed from the bottom using a plate viewer.” for “incubation.”

Enterococcus faecium = assay: In vitro MIC, broth microdilution (CLSI); assay type: cell-based
Protocol: as §1, §4, §5, §6, §7
as §3, with “incubation. The microplates were viewed from the bottom using a plate viewer.” for “incubation.”

MRSA = settings: background statement; cited from earlier work
[3] = tested on: Methicillin-resistant Staphylococcus aureus; assay: In vivo MRSA assay, thigh infection in a murine model; parameters: species or system Mice (CD-1); settings: vancomycin treated animals
Protocol: The in vivo antimicrobial activity for the isolated glycosides is represented in FIGS. 2A and 2B. Mice (CD-1) were purchased from Harlan Inc. and acclimatized up to 5 days before use. Food and water were available ad libitum throughout the study. They were rendered neutropenic by two injections of cyclophosphamide (100 mg/kg) given intraperitoneally, one and four days before infection. A volume of 50 uL suspension of Methicillin-resistant Staphylococcus aureus (1.5×10^6 live organisms) was injected intramuscularly (1M) into each of the two rear thighs. Each thigh was considered as an individual data point (total of 4 data points for each treatment). These mice were randomly distributed into the control or treatment groups (n=2/group).
Treatment with the test compound (1) was initiated via the intraperitoneal route 2 hrs after thigh inoculation. Control animals were concurrently administered saline (mock treatment) or vancomycin in the same volume as those receiving compound (1). All animals were sacrificed after 48 hours by CO2 inhalation. Immediately following sacrifice, thigh tissue was collected from the animals, weighed, and homogenized in 5.0 mL of saline. Thigh muscle homogenate was then processed for microbiological assay to determine the number of MRSA cfu per gram of muscle tissue.

C[C@@H]1O[C@@H](Oc2c(-c3ccc(O)cc3)oc3cc(O)cc(O)c3c2=O)[C@H](OC(=O)/C=C\c2ccc(O)cc2)[C@H](OC(=O)/C=C\c2ccc(O)cc2)[C@H]1O [Compound 4, kaempferol 3-O-α-L-(2″,3″-di-Z-p-coumaroyl)rhamnoside]
inhibited multiple strains: activity against enterococci (enterococci)
most potent in vitro activity: in vitro activity (rank among the four compounds) [1]
>32 µg/mL: MIC (Streptococcus pyogenes; MMX 718, CHP) | MIC (Streptococcus pyogenes; MMX 2572, UCLA) | MIC (Streptococcus pyogenes; MMX 3928, Mt. Sinai) | MIC (Streptococcus pneumoniae; MMX 748, PRSP, CHP) | MIC (Streptococcus pneumoniae; MMX 866, PSSP, CHP) | MIC (Streptococcus pneumoniae; MMX 1195, CLSI QC, ATCC 49619) | MIC (Streptococcus pneumoniae; MMX 3130, PSSP, UCLA) | MIC (Streptococcus pneumoniae; MMX 3160, PRSP, UCLA) | MIC (Streptococcus pneumoniae; MMX 3937, PSSP, Mt. Sinai) | MIC (Streptococcus pneumoniae; MMX 3953, PRSP, Mt. Sinai) | MIC (Streptococcus agalactiae; MMX 3743, Mt. Sinai) | MIC (Streptococcus agalactiae; MMX 4093, UCLA) | MIC (Streptococcus agalactiae; MMX 4106, CHP)
4 µg/mL: MIC (Enterococcus faecalis; MMX 4131, VRE, CHP) | MIC (Enterococcus faecium; MMX 0845, VSE, UCLA) | MIC (Enterococcus faecium; MMX 1238, VRE, Mt. Sinai)
>8 µg/mL: MIC ([2]; MMX 762, MRSE, CHP) | MIC ([2]; MMX 826, MRSE, UCLA) | MIC ([2]; MMX 3752, MRSE, Mt. Sinai) | MIC (Staphylococcus aureus; MMX 100, CLSI QC, ATCC 29213) | MIC (Staphylococcus aureus; MMX 753, MSSA, CHP) | MIC (Staphylococcus aureus; MMX 758, MRSA, CHP) | MIC (Staphylococcus aureus; MMX 2055, MRSA, UCLA) | MIC (Staphylococcus aureus; MMX 2063, MSSA, UCLA) | MIC (Staphylococcus aureus; MMX 3856, MSSA, Mt. Sinai) | MIC (Staphylococcus aureus; MMX 3894, MRSA, Mt. Sinai) | MIC (Enterococcus faecalis; MMX 742, VSE, CHP) | MIC (Enterococcus faecalis; MMX 3199, VSE, UCLA) | MIC (Enterococcus faecalis; MMX 3896, VSE, Mt. Sinai) | MIC (Enterococcus faecium; MMX 0799, VSE, CHP) | MIC (Enterococcus faecium; MMX 1259, VSE, Mt. Sinai) | MIC (Enterococcus faecium; MMX 4024, VRE, CHP) | MIC (Enterococcus faecium; MMX 4048, VRE, UCLA)
Neither compound was active: activity against the streptococci (streptococci)
8 µg/mL: MIC ([2]; MMX 835, MSSE, UCLA) | MIC ([2]; MMX 3703, MSSE, CHP) | MIC ([2]; MMX 3763, MSSE, Mt. Sinai) | MIC (Enterococcus faecalis; MMX 101, CLSI QC, ATCC 29212) | MIC (Enterococcus faecalis; MMX 3821, VRE, Mt. Sinai) | MIC (Enterococcus faecalis; MMX 4160, VRE, UCLA)

CN[C@H](CC(C)C)C(=O)N[C@H]1C(=O)N[C@@H](CC(N)=O)C(=O)N[C@H]2C(=O)N[C@H]3C(=O)N[C@H](C(=O)N[C@H](C(=O)O)c4cc(O)cc(O)c4-c4cc3ccc4O)[C@H](O)c3ccc(c(Cl)c3)Oc3cc2cc(c3O[C@@H]2O[C@H](CO)[C@@H](O)[C@H](O)[C@H]2O[C@H]2C[C@](C)(N)[C@H](O)[C@H](C)O2)Oc2ccc(cc2Cl)[C@H]1O [Vancomycin, reference compound]
35-57%: success rate (MRSA)
72%: reduction compared to vehicle control [3]
2.2×10^7 g of tissue: number of MRSA isolated from muscle tissue ([3]; intraperitoneal, 48 hours, neutropenic mice)
